In US10098909B2 (UNIVERSITY OF SOUTH FLORIDA, priority 2016, dated 2018):

What was measured:
[1] = test system: Wild-type mouse neuroblastoma (N2a) cells; assay: Neuronal cell differentiation in N2a cells (β-tubulin III, phospho-synapsin I; immunofluorescence and WB); assay type: cell-based; details: 10 mM, 24 h
Experimental: These cells were then permeabilized with 0.05% Triton X-100 for 5 min, washed, and incubated with mouse anti-β-tubulin III monoclonal antibody ([…]™), and rabbit anti-phospho-synapsin I (Ser^62, Ser^67) polyclonal antibody (EMD Millipore) overnight at 4° C. Alexa Fluor® 488 Goat anti-mouse IgG (green) and Alexa Fluor® 594 Donkey anti-rabbit IgG (red, Life Technologies) were used to detect β-tubulin III and phospho-synapsin I signals respectively. Confocal images were taken by Olympus Fluoview™ FV1000 laser scanning confocal microscope (Tokyo, Japan).

[2] = test system: Human neural stem cells (H9-Derived); assay: Human neural stem cell differentiation (MAP2, GFAP; immunofluorescence and WB); assay type: cell-based; details: 10 mM, 14 days
Experimental: These cells were then permeabilized, washed, incubated with mouse anti-MAP2 monoclonal antibody or rabbit anti-GFAP polyclonal antibody overnight at 4° C., stained with Alexa Fluor® 488 (green) and Alexa Fluor® 594 (red), and visualized by confocal microscopy. DAPI (blue) was used to detect nuclear DNA.

[3] = In vivo plasma and brain lithium pharmacokinetics after oral gavage (AAS); parameters: species or system Sprague-Dawley rats; details: for time of plasma lithium peak: sampled at 2, 24, 48, 72 h; for plasma and brain lithium level profile after oral dosing: summary of FIG. 2, up to 48 h
GSK3β [4] = assay: GSK3β phosphorylation in Fmr1 KO mouse embryonic fibroblasts (WB); assay type: cell-based; details: 60 min
Experimental: FIGS. 5A-5B. […] Many neurodegenerative disorders, including FXS, have been associated with enhanced GSK activity (14-16). Fmr1 KO mouse embryonic fibroblasts (Fmr1 KO MEF) have elevated levels of stimulatory GSK3β ([…]) phosphorylation compared to wild-type MEF (both cell lines kindly provided by Dr. David Nelson, Baylor College of Medicine). […] Cell lysates were then prepared and subjected to WB analysis using specific phospho-GSK3β (pGSK3β)^Tyr216, pGSK3β^Ser9 and total GSK antibodies.

GSK3α = GSK3α Tyr279 phosphorylation in brain homogenates of Fmr1 KO mice (WB); assay type: in vivo, mouse; details: 28 mg/kg/day i.p., 5 days
Experimental: (§1) (6A) Mouse brain homogenates were then prepared from cerebral cortex and hippocampus and analyzed by WB with specific pGSK3α^Tyr279, pGSK3β^Tyr216 and total GSK antibodies.

GSK3β [5] = assay: GSK3β Tyr216 phosphorylation in brain homogenates of Fmr1 KO mice (WB); assay type: in vivo, mouse; details: 28 mg/kg/day i.p., 5 days
Experimental: as §1

Fmr1 KO mice [6] = details: dfmr1 mutant Drosophila and Fmr1 KO mice; cited from earlier work
Fmr1 KO mice [7] = details: cited from earlier work
[8] = male rats, 4 mEq/kg lithium, oral gavage

Molecule: O=C(O)[C@@H]1CCCN1 [1-proline, L-proline]
- neuronal cell differentiation (β-tubulin III and phospho-synapsin I immunofluorescence and WB) vs PBS [1]: no significant difference
- GFAP expression (gliogenesis; immunofluorescence and WB, GFAP to β-actin) vs PBS [2]: no significance difference
- MAP2 expression (immunofluorescence and WB, MAP2 to β-actin) vs PBS [2]: no significance difference

Molecule: O=C(O)[C@@H]1CCCN1.O=C([O-])c1ccccc1O.[Li+] [LISPRO]
- plasma lithium level at 2 h ([3]; male rats, 4 mEq/kg lithium, oral gavage, 2 h): elevated
- plasma lithium level at 48 h [3, 8]: remained elevated
- plasma lithium level at 72 h ([3]; male rats, 4 mEq/kg lithium, oral gavage, 72 h): almost undetectable
- brain lithium levels at 24 and 48 h ([3]; male rats, 4 mEq/kg lithium, oral gavage, brain, 24 and 48 h): steady brain levels
- time of plasma lithium peak [3, 8]: 24 h
- plasma and brain lithium level profile after oral dosing [3]: nearly steady levels of lithium in plasma and brain for up to 48 h without the initial spike
- stimulatory pGSK3β Tyr216 level (GSK3β [4]; Fmr1 KO MEF, 40 μM): decreased
- total GSK3β level (GSK3β [4]; Fmr1 KO MEF, 10, 20 or 40 μM): unchanged
- inhibitory pGSK3β Ser9 level (GSK3β [4]; Fmr1 KO MEF, starting at 10 μM): increased
- pGSK3α Tyr279 level in cerebral cortex and hippocampus (GSK3α): reduced these levels
- pGSK3β Tyr216 level in cerebral cortex and hippocampus (GSK3β [5]): reduced these levels

Molecule: O=C([O-])[O-].[Li+].[Li+] [Li2CO3, lithium carbonate]
- plasma lithium level at 48 h [3, 8]: nearly undetectable
- brain lithium level at 24 h ([3]; male rats, 4 mEq/kg lithium, oral gavage, brain, 24 h): concomitant spike
- time of plasma lithium peak [3, 8]: 24 h
- plasma and brain lithium level profile after oral dosing [3]: spike in plasma and brain lithium levels at 24 h with considerably lower or undetectable levels at 48 h
- neuronal cell differentiation (β-tubulin III and phospho-synapsin I immunofluorescence and WB) vs PBS [1]: no significant difference
- GFAP expression (gliogenesis; immunofluorescence and WB, GFAP to β-actin) vs PBS [2]: no significance difference
- MAP2 expression (immunofluorescence and WB, MAP2 to β-actin) vs PBS [2]: no significance difference

Molecule: [Cl-].[Li+] [LiCl]
- neuronal cell differentiation (β-tubulin III and phospho-synapsin I immunofluorescence and WB) vs PBS [1]: no significant difference
- GFAP expression (gliogenesis; immunofluorescence and WB, GFAP to β-actin) vs PBS [2]: no significance difference
- MAP2 expression (immunofluorescence and WB, MAP2 to β-actin) vs PBS [2]: no significance difference

Molecule: Cn1cc(C2=C(c3ccc(Cl)cc3Cl)C(=O)NC2=O)c2ccccc21 [SB-216763]
- FXS behavioral phenotypes (hyperactivity, social and cognitive impairment) (Fmr1 KO mice [6]): reverse these behavioral deficits

Molecule: Cn1sc(=O)n(Cc2ccccc2)c1=O [TDZD-8]
- FXS behavioral phenotypes (hyperactivity, social and cognitive impairment) (Fmr1 KO mice [6]): reverse these behavioral deficits

B1: BDNF: brain derived neurotrophic factor, a potent modulator of learning and memory, synaptic plasticity and neurogenesis (protein, UniProt P23560 19-247, looked up)
Neurotrophic factor BDNF …: APMKEANIRGQGGLAYPGVRTHGTLESVNGPKAGSRGLTSLADTFEHVIEELLDEDQKVRPNEENNKDADLYTSRVMLSSQVPLEPPLLFLLEEYKNYLDAANMSMRVRRHSDPARRGELSVCDSISEWVTAADKKTAVDMSGGTVTVLEKVPVSKGQLKQYFYETKCNPMGYTKEGCRGIDKRHWNSQCRTTQSYVRALTMDSKKRIGWRFIRIDTSCVCTLTIKRGR
- impairment in hippocampal long term potentiation (Fmr1 KO mice [7]): fully restored
